Values after ≈ are worked out from the molar mass of the structure shown. Active and inactive are the calls of the source. No cut-off for these calls is given here.
Tested on: Mycobacterium tuberculosis
Test: Bactericidal activity against Mycobacterium tuberculosis H37Rv assessed as log reduction in CFU at 10 times MIC over 2 days by serial dilution-based time kill assay relative to control
Format: functional
Conditions: not given

**Q.** With `CCCCc1ccc(CNCC2CCCC(CNCc3ccc(CCCC)cc3)C2)cc1.Cl.Cl` (centres undefined) as the compound, how does the FC read?
**A.** 5

**Q.** For `CC(C)(C)c1ccc(CNCC2CCCC(CNCc3ccc(C(C)(C)C)cc3)C2)cc1.Cl.Cl` (centres undefined), which FC is on record?
**A.** 5

Tested on: Mycobacterium tuberculosis
Test: Bactericidal activity against Mycobacterium tuberculosis H37Rv assessed as reduction in CFU at 10 times MIC by serial dilution-based time kill assay relative to control
Format: functional, organism-based
Conditions: TDE = time-dependent effect

**Q.** For `CC(C)(C)c1ccc(CNCC2CCCC(CNCc3ccc(C(C)(C)C)cc3)C2)cc1.Cl.Cl` (centres undefined), which Activity is on record?
**A.** tde

Tested on: Mycobacterium tuberculosis
Test: Antitubercular activity against Mycobacterium tuberculosis H37Rv after 5 days by fluorescence assay
Format: functional
Conditions: 120 h

**Q.** Which MIC does the source give for `Cc1ccc(CNCC2CCCC(CNCc3ccc(C)c(C)c3)C2)cc1C` (centres undefined) here?
**A.** > 20 µM

**Q.** With `Cc1ccc(CNCC2CCCC(CNCc3ccc(C)cc3C)C2)c(C)c1` (centres undefined) as the compound, how does the MIC read?
**A.** > 20 µM

**Q.** Which MIC does the source give for `c1cc(N2CCCC2)ccc1CNCC1CCCC(CNCc2ccc(N3CCCC3)cc2)C1` (centres undefined) here?
**A.** 9.5 µM (≈ 4.38 µg/mL)

**Q.** For `Brc1ccccc1CNCC1CCCC(CNCc2ccccc2Br)C1` (centres undefined), which MIC is on record?
**A.** > 20 µM

**Q.** For `CCCc1ccc(CNCC2CCCC(CNCc3ccc(CCC)cc3)C2)cc1` (centres undefined), which MIC is on record?
**A.** 4.2 µM (≈ 1.71 µg/mL)

**Q.** For `CCCCc1ccc(CNCC2CCCC(CNCc3ccc(CCCC)cc3)C2)cc1.Cl.Cl` (centres undefined), which MIC is on record?
**A.** 2.4 µM

**Q.** Which MIC does the source give for `CCCCCc1ccccc1CNCC1CCCC(CNCc2ccccc2CCCCC)C1` (centres undefined) here?
**A.** 8.7 µM (≈ 4.03 µg/mL)

**Q.** Which MIC does the source give for `CC[C@@H](CO)NCCN[C@@H](CC)CO` [ETHAMBUTOL] here?
**A.** 2 µM (≈ 0.409 µg/mL)

**Q.** Which MIC does the source give for `Clc1cccc(CNCC2CCCC(CNCc3cccc(Cl)c3)C2)c1` (centres undefined) here?
**A.** > 20 µM

**Q.** Which MIC does the source give for `Cc1ccc(CNCC2CCCC(CNCc3ccc(C)cc3)C2)cc1` (centres undefined) here?
**A.** > 20 µM

**Q.** With `Cc1ccc(C)c(CNCC2CCCC(CNCc3cc(C)ccc3C)C2)c1` (centres undefined) as the compound, how does the MIC read?
**A.** > 20 µM

**Q.** With `CCCCCc1ccc(CNCC2CCCC(CNCc3ccc(CCCCC)cc3)C2)cc1` (centres undefined) as the compound, how does the MIC read?
**A.** 6.7 µM (≈ 3.1 µg/mL)

**Q.** For `Cc1cc(C)cc(CNCC2CCCC(CNCc3cc(C)cc(C)c3)C2)c1` (centres undefined), which MIC is on record?
**A.** 17.5 µM (≈ 6.63 µg/mL)

**Q.** With `CCCCCCc1ccccc1CNCC1CCCC(CNCc2ccccc2CCCCCC)C1` (centres undefined) as the compound, how does the MIC read?
**A.** 8.8 µM (≈ 4.32 µg/mL)

**Q.** Which MIC does the source give for `Clc1ccc(CNCC2CCCC(CNCc3ccc(Cl)cc3)C2)cc1` (centres undefined) here?
**A.** 17.5 µM (≈ 6.85 µg/mL)

**Q.** For `c1ccc(N2CCN(c3ccc(CNCC4CCCC(CNCc5ccc(N6CCN(c7ccccc7)CC6)cc5)C4)cc3)CC2)cc1` (centres undefined), which MIC is on record?
**A.** 4.4 µM (≈ 2.83 µg/mL)

**Q.** For `CCCCCCCCc1ccc(CNCC2CCCC(CNCc3ccc(CCCCCCCC)cc3)C2)cc1` (centres undefined), which MIC is on record?
**A.** 3.2 µM (≈ 1.75 µg/mL)

**Q.** For `Brc1cccc(CNCC2CCCC(CNCc3cccc(Br)c3)C2)c1` (centres undefined), which MIC is on record?
**A.** 12.7 µM (≈ 6.1 µg/mL)

**Q.** With `CC(C)c1ccc(CNCC2CCCC(CNCc3ccc(C(C)C)cc3)C2)cc1` (centres undefined) as the compound, how does the MIC read?
**A.** 4.4 µM (≈ 1.79 µg/mL)

**Q.** For `CCCCCCc1ccc(CNCC2CCCC(CNCc3ccc(CCCCCC)cc3)C2)cc1` (centres undefined), which MIC is on record?
**A.** 5.6 µM (≈ 2.75 µg/mL)

**Q.** For `c1cc(N2CCCCC2)ccc1CNCC1CCCC(CNCc2ccc(N3CCCCC3)cc2)C1` (centres undefined), which MIC is on record?
**A.** 13.8 µM (≈ 6.74 µg/mL)

**Q.** With `CCCCCCCCc1ccccc1CNCC1CCCC(CNCc2ccccc2CCCCCCCC)C1` (centres undefined) as the compound, how does the MIC read?
**A.** 16.1 µM (≈ 8.81 µg/mL)

**Q.** For `CCCCCCCc1ccccc1CNCC1CCCC(CNCc2ccccc2CCCCCCC)C1` (centres undefined), which MIC is on record?
**A.** 20 µM (≈ 10.4 µg/mL)

**Q.** For `CC(C)(C)c1ccc(CNCC2CCCC(CNCc3ccc(C(C)(C)C)cc3)C2)cc1.Cl.Cl` (centres undefined), which MIC is on record?
**A.** 1.1 µM

**Q.** Which MIC does the source give for `Cc1cccc(CNCC2CCCC(CNCc3cccc(C)c3)C2)c1` (centres undefined) here?
**A.** > 20 µM

**Q.** With `CCCCCCCc1ccc(CNCC2CCCC(CNCc3ccc(CCCCCCC)cc3)C2)cc1` (centres undefined) as the compound, how does the MIC read?
**A.** 3.1 µM (≈ 1.61 µg/mL)

**Q.** With `CCc1ccc(CNCC2CCCC(CNCc3ccc(CC)cc3)C2)cc1` (centres undefined) as the compound, how does the MIC read?
**A.** 15.7 µM (≈ 5.94 µg/mL)

**Q.** Which MIC does the source give for `Clc1ccc(CNCC2CCCC(CNCc3ccc(Cl)cc3Cl)C2)c(Cl)c1` (centres undefined) here?
**A.** 20 µM (≈ 9.21 µg/mL)

**Q.** For `FC(F)(F)c1ccc(CNCC2CCCC(CNCc3ccc(C(F)(F)F)cc3)C2)cc1` (centres undefined), which MIC is on record?
**A.** 12.5 µM (≈ 5.73 µg/mL)

**Q.** With `Brc1ccc(CNCC2CCCC(CNCc3ccc(Br)cc3)C2)cc1` (centres undefined) as the compound, how does the MIC read?
**A.** 12.2 µM (≈ 5.86 µg/mL)

Tested on: Mycobacterium tuberculosis
Test: Bactericidal activity against Mycobacterium tuberculosis H37Rv assessed as reduction in CFU at 10 times MIC after 4 days by serial dilution-based time kill assay relative to control
Format: functional, organism-based
Conditions: not given

**Q.** For `CCCCc1ccc(CNCC2CCCC(CNCc3ccc(CCCC)cc3)C2)cc1.Cl.Cl` (centres undefined), which Activity is on record?
**A.** Active

**Q.** Which Activity does the source give for `CC(C)(C)c1ccc(CNCC2CCCC(CNCc3ccc(C(C)(C)C)cc3)C2)cc1.Cl.Cl` (centres undefined) here?
**A.** Active

Tested on: not listed separately
Test: Cytotoxicity against human RBC up to 500 ug/ml
Format: cell-based
Conditions: erythrocyte

**Q.** With `CCCCc1ccc(CNCC2CCCC(CNCc3ccc(CCCC)cc3)C2)cc1.Cl.Cl` (centres undefined) as the compound, how does the Activity read?
**A.** Non-toxic

**Q.** With `CC(C)(C)c1ccc(CNCC2CCCC(CNCc3ccc(C(C)(C)C)cc3)C2)cc1.Cl.Cl` (centres undefined) as the compound, how does the Activity read?
**A.** Non-toxic

Tested on: Mycobacterium tuberculosis
Test: Bactericidal activity against Mycobacterium tuberculosis H37Rv assessed as reduction in CFU over 4 days by serial dilution-based time kill assay relative to control
Format: functional
Conditions: not given

**Q.** For `CC(C)(C)c1ccc(CNCC2CCCC(CNCc3ccc(C(C)(C)C)cc3)C2)cc1.Cl.Cl` (centres undefined), which Activity is on record?
**A.** Dose-dependent effect

Same assay, conditions: 96 h

**Q.** With `CC(C)(C)c1ccc(CNCC2CCCC(CNCc3ccc(C(C)(C)C)cc3)C2)cc1.Cl.Cl` (centres undefined) as the compound, how does the MBC read?
**A.** 4.5 µM

Tested on: Mycobacterium tuberculosis
Test: Antitubercular activity against Mycobacterium tuberculosis H37Rv at 20 uM after 5 days by fluorescence assay
Format: functional, organism-based
Conditions: not given

**Q.** For `Fc1ccc(CNCC2CCCC(CNCc3ccc(F)cc3)C2)cc1` (centres undefined), which inhibition is on record?
**A.** inactive

**Q.** With `O=[N+]([O-])c1ccc(CNCC2CCCC(CNCc3ccc([N+](=O)[O-])cc3)C2)cc1` (centres undefined) as the compound, how does the inhibition read?
**A.** inactive

**Q.** Which inhibition does the source give for `Fc1ccccc1CNCC1CCCC(CNCc2ccccc2F)C1` (centres undefined) here?
**A.** inactive

**Q.** For `O=[N+]([O-])c1cccc(CNCC2CCCC(CNCc3cccc([N+](=O)[O-])c3)C2)c1` (centres undefined), which inhibition is on record?
**A.** inactive

**Q.** With `Fc1cccc(CNCC2CCCC(CNCc3cccc(F)c3)C2)c1` (centres undefined) as the compound, how does the inhibition read?
**A.** inactive

**Q.** For `COc1ccc(CNCC2CCCC(CNCc3ccc(OC)cc3)C2)cc1` (centres undefined), which inhibition is on record?
**A.** inactive

**Q.** Which inhibition does the source give for `FC(F)(F)c1ccccc1CNCC1CCCC(CNCc2ccccc2C(F)(F)F)C1` (centres undefined) here?
**A.** inactive

**Q.** Which inhibition does the source give for `Clc1cccc(Cl)c1CNCC1CCCC(CNCc2c(Cl)cccc2Cl)C1` (centres undefined) here?
**A.** inactive

**Q.** For `Fc1cc(F)cc(CNCC2CCCC(CNCc3cc(F)cc(F)c3)C2)c1` (centres undefined), which inhibition is on record?
**A.** inactive

**Q.** For `Clc1ccccc1CNCC1CCCC(CNCc2ccccc2Cl)C1` (centres undefined), which inhibition is on record?
**A.** inactive

**Q.** With `CN1CCN(c2ccc(CNCC3CCCC(CNCc4ccc(N5CCN(C)CC5)cc4)C3)cc2)CC1` (centres undefined) as the compound, how does the inhibition read?
**A.** inactive

**Q.** With `c1ccc(CNCC2CCCC(CNCc3ccccc3)C2)cc1` (centres undefined) as the compound, how does the inhibition read?
**A.** inactive

**Q.** Which inhibition does the source give for `O=[N+]([O-])c1ccccc1CNCC1CCCC(CNCc2ccccc2[N+](=O)[O-])C1` (centres undefined) here?
**A.** inactive

**Q.** For `Cc1ccccc1CNCC1CCCC(CNCc2ccccc2C)C1` (centres undefined), which inhibition is on record?
**A.** inactive

**Q.** Which inhibition does the source give for `Fc1cccc(F)c1CNCC1CCCC(CNCc2c(F)cccc2F)C1` (centres undefined) here?
**A.** inactive

Source: ChEMBL document CHEMBL2331510, “Antimycobacterial activity evaluation, time-kill kinetic and 3D-QSAR study of C-(3-aminomethyl-cyclohexyl)-methylamine derivatives” (Bioorg Med Chem Lett, 2013)
